Earlier results, collected in patent publication US20240401031A1, “Platform Using iPSC-Derived Cardiomyocytes Carrying Gene Variants as Models of Cardiac Disease and Drug-Response” (SRI INTERNATIONAL, priority 2021, published 2024).

Settings: source CredibleMeds

| SMILES | Risk (Torsade de Pointes) |
| --- | --- |
| COc1ccc(OC)c(C(O)CNC(=O)CN)c1 (stereo not shown) [Midodrine] | (SR) |
| CC(C)(C)c1nc(-c2cccc(NS(=O)(=O)c3c(F)cccc3F)c2F)c(-c2ccnc(N)n2)s1 [Dabrafenib] | (PR) |
| CN1CCN(C2=Nc3ccccc3Sc3ccc(Cl)cc32)CC1 [Clotiapine] | (PR) |
| CCn1cc(C(=O)O)c(=O)c2cc(F)c(N3CCNCC3)cc21 [Norfloxacin] | (PR) |
| CCN1CCCC1CNC(=O)c1cc(S(=O)(=O)CC)c(N)cc1OC (stereo not shown) [Amisulpride] | (CR) |
| CC(CCc1ccc(O)cc1)NCCc1ccc(O)c(O)c1 (stereo not shown) [Dobutamine] | (SR) |
| Cc1cc(C(C)(C)C)c(O)c(C)c1CC1=NCCN1 [Oxymetazoline] | (SR) |
| O=C1CN2Cc3c(ccc(Cl)c3Cl)N=C2N1 [Anagrelide] | (KR) |
| CC(CC(c1ccccc1)c1ccccc1)NC(C)(C)C (stereo not shown) [Terodiline] | (KR) |
| COc1cc(C(C)=O)ccc1OCCCN1CCC(c2noc3cc(F)ccc23)CC1 [Iloperidone] | (PR) |
| CCCS(=O)(=O)Nc1ccc(F)c(C(=O)c2c[nH]c3ncc(-c4ccc(Cl)cc4)cc23)c1F [Vemurafenib] | (PR) |
| CN(C)CCC=C1c2ccccc2COc2ccccc21 [Doxepin] | (CR) |
| COC(=O)[C@H]1[C@@H](OC(=O)c2ccccc2)C[C@@H]2CC[C@H]1N2C [Cocaine] | (KR) |
| CC(C)(C)NCC(O)c1cc(O)cc(O)c1 (stereo not shown) [Terbutaline] | (SR) |
| NS(=O)(=O)c1cc(C(=O)O)c(NCc2ccco2)cc1Cl [Furosemide] | (CR) |
| CC[C@H](O)C(C[C@H](C)N(C)C)(c1ccccc1)c1ccccc1 [Levomethadyl] | (KR) |
| Cc1c(OCC(F)(F)F)ccnc1C[S+]([O-])c1nc2ccccc2[nH]1 (stereo not shown) [Lansoprazole] | (CR) |
| O=C(c1ccc(F)cc1)C1CCN(CCn2c(=O)[nH]c3ccccc3c2=O)CC1 [Ketanserin] | (PR) |
| CC(C)C[C@H](NC(=O)[C@H](Cc1ccccc1)NC(=O)c1cnccn1)B(O)O [Bortezomib] | (PR) |
| CCN1CCCC1CNC(=O)c1cc(S(=O)(=O)CC)ccc1OC (stereo not shown) [Sultopride] | (KR) |
| COc1cccc(C2(O)CCCCC2CN(C)C)c1 (stereo not shown) [Tramadol] | (PR) |
| O=C1[C@@H]2[C@H]3CC[C@H](C3)[C@@H]2C(=O)N1C[C@@H]1CCCC[C@H]1CN1CCN(c2nsc3ccccc23)CC1 [Lurasidone] | (PR) |
| C[C@@H](Cc1ccccc1)NC(=O)[C@@H](N)CCCCN [Lisdexamfetamine] | (SR) |
| CC[C@@H]([C@H](C)O)n1ncn(-c2ccc(N3CCN(c4ccc(OC[C@@H]5CO[C@@](Cn6cncn6)(c6ccc(F)cc6F)C5)cc4)CC3)cc2)c1=O [Posaconazole] | (CR) |
| O=C(c1ccc(F)c(F)c1Nc1ccc(I)cc1F)N1CC(O)([C@@H]2CCCCN2)C1 [Cobimetinib] | (PR) |
| Cc1[nH]c2ccccc2c1CCNCc1ccc(/C=C/C(=O)NO)cc1 [Panobinostat] | (PR) |
| COc1ccc(CC(C)(C)NC[C@H](O)c2cc(O)cc3c2OCC(=O)N3)cc1 [Olodaterol] | (SR) |
| Cc1cccc(C)c1NC(=O)CC12CCCN1CCC2 [Pilsicainide] | (PR) |

| SMILES | Risk (Torsade de Pointes) |
| --- | --- |
| NS(=O)(=O)c1cc2c(cc1Cl)NCNS2(=O)=O [Hydrochlorothiazide] | (CR) |
| OCCOCCN1CCN(C2=Nc3ccccc3Sc3ccccc32)CC1 [Quetiapine] | (CR) |
| O=C1Cc2cc(CCN3CCN(c4nsc5ccccc45)CC3)c(Cl)cc2N1 [Ziprasidone] | (CR) |
| CN(C)CC/C=C1/c2ccccc2Sc2ccc(Cl)cc21 [Chlorprothixene] | (KR) |
| CCN1CCCC1CNC(=O)c1cc(S(N)(=O)=O)ccc1OC (stereo not shown) [Sulpiride] | (KR) |
| C[C@@H](Cc1ccccc1)N(C)Cc1ccccc1 [Benzphetamine] | (SR) |
| CN1CCc2cccc3c2[C@H]1Cc1ccc(O)c(O)c1-3 [Apomorphine] | (PR) |
| CC[C@H]1OC(=O)[C@H](C)[C@@H](O[C@H]2C[C@@](C)(OC)[C@@H](O)[C@H](C)O2)[C@H](C)[C@@H](O[C@@H]2O[C@H](C)C[C@H](N(C)C)[C@H]2O)[C@](C)(O)C[C@@H](C)/C(=N\OCOCCOC)[C@H](C)[C@@H](O)[C@]1(C)O [Roxithromycin] | (KR) |
| CC(C)COc1ccc(CNC(=O)N(Cc2ccc(F)cc2)C2CCN(C)CC2)cc1 [Pimavanserin] | (PR) |
| C[C@H](N)Cc1ccccc1 [Dextroamphetamine] | (SR) |
| CN[C@H](C)Cc1ccccc1 [Levomethamphetamine] | (SR) |
| COc1cc(N)c(Cl)cc1C(=O)NC1CCN(CCCOc2ccc(F)cc2)CC1OC (stereo not shown) [Cisapride] | (KR) |
| Fc1ccc([C@@H]2CCNC[C@H]2COc2ccc3c(c2)OCO3)cc1 [Paroxetine] | (CR) |
| COc1ccc2nc([S@@+]([O-])Cc3ncc(C)c(OC)c3C)[nH]c2c1 [Esomeprazole] | (CR) |
| COc1ccc(CCN2CCC(Nc3nc4ccccc4n3Cc3ccc(F)cc3)CC2)cc1 [Astemizole] | (KR) |
| CNCCCN1c2ccccc2CCc2ccccc21 [Desipramine] | (PR) |
| CN(C)CCC[C@@]1(c2ccc(F)cc2)OCc2cc(C#N)ccc21 [Escitalopram] | (KR) |
| CO[C@@H]1[C@H](N(C)C(=O)c2ccccc2)C[C@H]2O[C@]1(C)n1c3ccccc3c3c4c(c5c6ccccc6n2c5c31)C(=O)NC4 [Midostaurin] | (PR) |
| Cc1ccc(Nc2nccc(N(C)c3ccc4c(C)n(C)nc4c3)n2)cc1S(N)(=O)=O [Pazopanib] | (PR) |
| CN[C@H]1CC[C@@H](c2ccc(Cl)c(Cl)c2)c2ccccc21 [Sertraline] | (CR) |
| CC[C@H]1CN2CC[C@H]1C[C@@H]2[C@@H](O)c1ccnc2ccc(OC)cc12 [Hydroquinidine] | (KR) |
| CN(C)CCC=C1c2ccccc2CCc2ccccc21 [Amitriptyline] | (CR) |
| COC(=O)CC[C@@H]1N=C(c2ccccn2)c2cc(Br)ccc2-n2c(C)cnc21 [Remimazolam] | (PR) |
| CN1CC[C@@H](NC(=O)Nc2ccc(C#N)cc2)C[C@@H]1c1nc2ccccc2[nH]1 [Glasdegib] | (PR) |
| COc1ccc(NC(=O)c2ccc(C(=N)N(C)C)cc2)c(C(=O)Nc2ccc(Cl)cn2)c1 [Betrixaban] | (PR) |
| CCCCCCCC(=O)N[C@H](CN1CCCC1)[C@H](O)c1ccc2c(c1)OCCO2 [Eliglustat] | (PR) |
| CC[C@H]1OC(=O)[C@H](C)[C@@H](O[C@H]2C[C@@](C)(OC)[C@@H](O)[C@H](C)O2)[C@H](C)[C@@H](O[C@@H]2O[C@H](C)C[C@H](N(C)C)[C@H]2O)[C@](C)(OC)C[C@@H](C)C(=O)[C@H](C)[C@@H](O)[C@]1(C)O [Clarithromycin] | (KR) |
